In ChEMBL document CHEMBL5537162, “Development of Antibacterial Peptides with Membrane Disruption and Folate Pathway Inhibitory Activities against Methicillin-Resistant Staphylococcus aureus” (J Med Chem, 2024):
Converted amounts (≈) assume the structure as drawn. The source made the active and inactive calls. The calls are words filed in the database; no cut-off is given here.

Tests used:
Staphylococcus aureus [1] = assay: Antibacterial activity against methicillin-resistant Staphylococcus aureus assessed as bacterial growth inhibition incubated for 24 hrs by CLSI based micro-broth dilution assay; assay type: functional
[2] = (§1) Hemolytic activity in mouse RBC assessed as hemolysis incubated for 1 hrs by spectrophotometric analysis; assay type: toxicity, cell-based, Erythrocyte; conditions: mouse red blood cells (erythrocytes)
Erythrocyte = assay: as §1; assay type: toxicity, cell-based; conditions: erythrocyte, 1 h
[3] = Hemolytic activity in mouse RBC assessed as hemolysis at 320 uM incubated for 1 hrs by spectrophotometric analysis relative to control; assay type: toxicity, cell-based, Erythrocyte; conditions: mouse red blood cells (erythrocytes), read-out: %max
[4] = Antiproliferative activity against HEK293T cells assessed as reduction in cell viability measured for 48 hrs by MTT assay; assay type: toxicity, cell-based, HEK-293T; conditions: human
[5] = Selectivity index, ratio of IC50 for antiproliferative activity against HEK293T cells assessed as reduction in cell viability to MIC for antibacterial activity against methicillin-resistant Staphylococcus aureus assessed as bacterial growth inhibition; assay type: toxicity, cell-based; conditions: human, read-out: Selectivity Index
HEK-293T = assay: Antiproliferative activity against HEK293T cells assessed as reduction in cell viability at 2.5 to 320 uM measured for 48 hrs by MTT assay relative to control; assay type: toxicity, cell-based; conditions: human, dose 2.5-320 µM
Staphylococcus aureus [6] = assay: Antibacterial activity against methicillin-resistant Staphylococcus aureus 18908 assessed as bacterial growth inhibition incubated for 24 hrs by CLSI based micro-broth dilution assay; assay type: functional
Staphylococcus aureus [7] = assay: Antibacterial activity against methicillin-resistant Staphylococcus aureus 18466 assessed as bacterial growth inhibition incubated for 24 hrs by CLSI based micro-broth dilution assay; assay type: functional
Staphylococcus aureus [8] = assay: Antibacterial activity against methicillin-resistant Staphylococcus aureus 18475 assessed as bacterial growth inhibition incubated for 24 hrs by CLSI based micro-broth dilution assay; assay type: functional
Staphylococcus aureus [9] = assay: Antibacterial activity against methicillin-resistant Staphylococcus aureus 18567 assessed as bacterial growth inhibition incubated for 24 hrs by CLSI based micro-broth dilution assay; assay type: functional
Staphylococcus aureus [10] = assay: Antibacterial activity against methicillin-resistant Staphylococcus aureus 18858 assessed as bacterial growth inhibition incubated for 24 hrs by CLSI based micro-broth dilution assay; assay type: functional
Staphylococcus aureus [11] = assay: Antibacterial activity against methicillin-resistant Staphylococcus aureus 18878 assessed as bacterial growth inhibition incubated for 24 hrs by CLSI based micro-broth dilution assay; assay type: functional
Staphylococcus aureus [12] = assay: Antibacterial activity against methicillin-resistant Staphylococcus aureus 19047 assessed as bacterial growth inhibition incubated for 24 hrs by CLSI based micro-broth dilution assay; assay type: functional
Staphylococcus aureus [13] = assay: Antibacterial activity against methicillin-resistant Staphylococcus aureus 19498 assessed as bacterial growth inhibition incubated for 24 hrs by CLSI based micro-broth dilution assay; assay type: functional
Staphylococcus aureus [14] = assay: Antibacterial activity against methicillin-resistant Staphylococcus aureus 19167 assessed as bacterial growth inhibition incubated for 24 hrs by CLSI based micro-broth dilution assay; assay type: functional
Staphylococcus aureus [15] = assay: Antibacterial activity against methicillin-resistant Staphylococcus aureus 19423 assessed as bacterial growth inhibition incubated for 24 hrs by CLSI based micro-broth dilution assay; assay type: functional
Staphylococcus aureus [16] = assay: Antibacterial activity against Methicillin-resistant Staphylococcus aureus infected in ICR mouse skin infection model assessed as reduction in bacterial content at 5 mg/kg, sc measured upto 10 days; assay type: functional, organism-based; conditions: time <= 10.0 day
Staphylococcus aureus [17] = assay: Antibacterial activity against Methicillin-resistant Staphylococcus aureus infected in ICR mouse skin infection model assessed as reduction in inflammatory infiltration at 5 mg/kg, sc by H and E staining based microscopic analysis; assay type: functional, organism-based
Staphylococcus aureus [18] = assay: Antibacterial activity against Methicillin-resistant Staphylococcus aureus infected in ICR mouse skin infection model assessed as reduction in skin abscess volume; assay type: functional, organism-based

## H-KARVSVKVTASLSKAW-NH2
Staphylococcus aureus [1]
  MIC: > 48 µM
[2]
  HC50 at 1 h: > 320 µM
Erythrocyte
  HC10: > 320 µM
[3]
  hemolysis at 1 h, 320 µM: 7.57%
[4]
  IC50 at 48 h: > 320 µM
[5]
  selectivity ratio: 6.67

## H-RRRVARRVFWFVRRAV-NH2
Staphylococcus aureus [1]
  MIC: 24 µM
[2]
  HC50 at 1 h: > 320 µM
Erythrocyte
  HC10: > 320 µM
[3]
  hemolysis at 1 h, 320 µM: 8.25%
[4]
  IC50 at 48 h: > 320 µM
[5]
  selectivity ratio: 13.3

## H-KGVIFAKASVSVKVTASLSKAWTNSQ-NH2
Staphylococcus aureus [1]
  MIC: > 48 µM
[2]
  HC50 at 1 h: > 320 µM
Erythrocyte
  HC10: > 320 µM
[3]
  hemolysis at 1 h, 320 µM: 5.92%
[4]
  IC50 at 48 h: > 320 µM
[5]
  selectivity ratio: 6.67

## H-WRWWRRRRWWRWRRWW-NH2
Staphylococcus aureus [1]
  MIC: 48 µM
[2]
  HC50 at 1 h: > 320 µM
Erythrocyte
  HC10: 33.2 µM
[3]
  hemolysis at 1 h, 320 µM: 40.3%
[4]
  IC50 at 48 h: > 320 µM
[5]
  selectivity ratio: 6.67
HEK-293T
  Activity: 59.04%

## H-KARVAVKVIRFLYKAW-NH2
Staphylococcus aureus [1]
  MIC: 12 µM
[2]
  HC50 at 1 h: > 320 µM
Erythrocyte
  HC10: > 320 µM
[3]
  hemolysis at 1 h, 320 µM: 6.36%
[4]
  IC50 at 48 h: > 320 µM
[5]
  selectivity ratio: 26.7

## CN[C@H](CC(C)C)C(=O)N[C@H]1C(=O)N[C@@H](CC(N)=O)C(=O)N[C@H]2C(=O)N[C@H]3C(=O)N[C@H](C(=O)N[C@H](C(=O)O)c4cc(O)cc(O)c4-c4cc3ccc4O)[C@H](O)c3ccc(c(Cl)c3)Oc3cc2cc(c3O[C@@H]2O[C@H](CO)[C@@H](O)[C@H](O)[C@H]2O[C@H]2C[C@](C)(N)[C@H](O)[C@H](C)O2)Oc2ccc(cc2Cl)[C@H]1O [VANCOMYCIN]
Staphylococcus aureus [1]
  MIC: 1 µM (≈ 1.45 µg/mL)
[2]
  HC50 at 1 h: > 320 µM
Erythrocyte
  HC10: > 320 µM
[3]
  hemolysis at 1 h, 320 µM: 6.24%
[4]
  IC50 at 48 h: > 320 µM
[5]
  selectivity ratio: 320
Staphylococcus aureus [6]
  MIC: 1 µM (≈ 1.45 µg/mL)
Staphylococcus aureus [7]
  MIC: 1 µM (≈ 1.45 µg/mL)
Staphylococcus aureus [8]
  MIC: 1 µM (≈ 1.45 µg/mL)
Staphylococcus aureus [9]
  MIC: 1 µM (≈ 1.45 µg/mL)
Staphylococcus aureus [10]
  MIC: 1 µM (≈ 1.45 µg/mL)
Staphylococcus aureus [11]
  MIC: 1 µM (≈ 1.45 µg/mL)
Staphylococcus aureus [12]
  MIC: 1 µM (≈ 1.45 µg/mL)
Staphylococcus aureus [13]
  MIC: 1 µM (≈ 1.45 µg/mL)
Staphylococcus aureus [14]
  MIC: 1 µM (≈ 1.45 µg/mL)
Staphylococcus aureus [15]
  MIC: 1 µM (≈ 1.45 µg/mL)
Staphylococcus aureus [16]
  Activity: Active
Staphylococcus aureus [17]
  Activity: Active

## H-RRWIARRAIWRRRRWW-NH2
Staphylococcus aureus [1]
  MIC: 48 µM
[2]
  HC50 at 1 h: > 320 µM
Erythrocyte
  HC10: 92.35 µM
[3]
  hemolysis at 1 h, 320 µM: 17.2%
[4]
  IC50 at 48 h: > 320 µM
[5]
  selectivity ratio: 6.67
HEK-293T
  Activity: 58.94%

## H-RRPLARPLIRFIRRPW-NH2
Staphylococcus aureus [1]
  MIC: > 48 µM
[2]
  HC50 at 1 h: > 320 µM
Erythrocyte
  HC10: > 320 µM
[3]
  hemolysis at 1 h, 320 µM: 7.57%
[4]
  IC50 at 48 h: > 320 µM
[5]
  selectivity ratio: 6.67

## COc1cccc(OC)c1C(=O)N[C@@H]1C(=O)N2[C@@H]1SC(C)(C)[C@@H]2C(=O)O [METHICILLIN]
Staphylococcus aureus [6]
  MIC: > 480 µM
Staphylococcus aureus [7]
  MIC: > 480 µM
Staphylococcus aureus [8]
  MIC: > 480 µM
Staphylococcus aureus [9]
  MIC: > 480 µM
Staphylococcus aureus [10]
  MIC: > 480 µM
Staphylococcus aureus [11]
  MIC: > 480 µM
Staphylococcus aureus [12]
  MIC: > 480 µM
Staphylococcus aureus [13]
  MIC: > 480 µM
Staphylococcus aureus [14]
  MIC: > 480 µM
Staphylococcus aureus [15]
  MIC: > 480 µM
Staphylococcus aureus [18]
  Activity: Active

## H-LFRVVRRVVRFIRRAA-NH2
Staphylococcus aureus [1]
  MIC: 12 µM
[2]
  HC50 at 1 h: > 320 µM
Erythrocyte
  HC10: > 320 µM
[3]
  hemolysis at 1 h, 320 µM: 7.53%
[4]
  IC50 at 48 h: > 320 µM
[5]
  selectivity ratio: 26.7

## H-KASVSVKVTASLSKAW-NH2
Staphylococcus aureus [1]
  MIC: > 48 µM
[2]
  HC50 at 1 h: > 320 µM
Erythrocyte
  HC10: > 320 µM
[3]
  hemolysis at 1 h, 320 µM: 7.51%
[4]
  IC50 at 48 h: > 320 µM
[5]
  selectivity ratio: 6.67

## Cc1onc(-c2ccccc2)c1C(=O)N[C@@H]1C(=O)N2[C@@H]1SC(C)(C)[C@@H]2C(=O)O [OXACILLIN]
Staphylococcus aureus [6]
  MIC: > 480 µM
Staphylococcus aureus [7]
  MIC: > 480 µM
Staphylococcus aureus [8]
  MIC: > 480 µM
Staphylococcus aureus [9]
  MIC: > 480 µM
Staphylococcus aureus [10]
  MIC: > 480 µM
Staphylococcus aureus [11]
  MIC: > 480 µM
Staphylococcus aureus [12]
  MIC: > 480 µM
Staphylococcus aureus [13]
  MIC: > 480 µM
Staphylococcus aureus [14]
  MIC: > 480 µM
Staphylococcus aureus [15]
  MIC: > 480 µM

## H-RRRVARRVIRFIRRAW-NH2
Staphylococcus aureus [1]
  MIC: 12 µM
[2]
  HC50 at 1 h: > 320 µM
Erythrocyte
  HC10: 320 µM
[3]
  hemolysis at 1 h, 320 µM: 10.2%
[4]
  IC50 at 48 h: > 320 µM
[5]
  selectivity ratio: 26.7

## H-RARVAVRVIRFLYRAW-NH2
Staphylococcus aureus [1]
  MIC: 12 µM
[2]
  HC50 at 1 h: > 320 µM
Erythrocyte
  HC10: 320 µM
[3]
  hemolysis at 1 h, 320 µM: 9.34%
[4]
  IC50 at 48 h: > 320 µM
[5]
  selectivity ratio: 26.7

## H-RRRWARRIIWIIRRAW-NH2
Staphylococcus aureus [1]
  MIC: 24 µM
[2]
  HC50 at 1 h: > 320 µM
Erythrocyte
  HC10: > 320 µM
[3]
  hemolysis at 1 h, 320 µM: 8.66%
[4]
  IC50 at 48 h: > 320 µM
[5]
  selectivity ratio: 13.3

## H-RARVRVRVRRFLRRRW-NH2
Staphylococcus aureus [1]
  MIC: > 48 µM
[2]
  HC50 at 1 h: > 320 µM
Erythrocyte
  HC10: 320 µM
[3]
  hemolysis at 1 h, 320 µM: 11.3%
[4]
  IC50 at 48 h: > 320 µM
[5]
  selectivity ratio: 6.67

## H-KASVSVKVTASLSKAWTNSQ-NH2
Staphylococcus aureus [1]
  MIC: > 48 µM
[2]
  HC50 at 1 h: > 320 µM
Erythrocyte
  HC10: > 320 µM
[3]
  hemolysis at 1 h, 320 µM: 6.24%
[4]
  IC50 at 48 h: > 320 µM
[5]
  selectivity ratio: 6.67

## H-RRWWWRRWWWRRRRWW-NH2
Staphylococcus aureus [1]
  MIC: 48 µM
[2]
  HC50 at 1 h: > 320 µM
Erythrocyte
  HC10: 25.91 µM
[3]
  hemolysis at 1 h, 320 µM: 51.3%
[4]
  IC50 at 48 h: > 320 µM
[5]
  selectivity ratio: 6.67
HEK-293T
  Activity: 55.74%

## H-WARIARRAIRAWRRWW-NH2
Staphylococcus aureus [1]
  MIC: 12 µM
[2]
  HC50 at 1 h: > 320 µM
Erythrocyte
  HC10: 75.19 µM
[3]
  hemolysis at 1 h, 320 µM: 20.1%
[4]
  IC50 at 48 h: > 320 µM
[5]
  selectivity ratio: 26.7
HEK-293T
  Activity: 62.65%

## H-RRFFVRRVFFRRRRFF-OH
Staphylococcus aureus [1]
  MIC: 48 µM
[2]
  HC50 at 1 h: > 320 µM
Erythrocyte
  HC10: 41.05 µM
[3]
  hemolysis at 1 h, 320 µM: 30.1%
[4]
  IC50 at 48 h: > 320 µM
[5]
  selectivity ratio: 6.67
HEK-293T
  Activity: 59.65%

## H-LRRFARRLIRRIRRAW-NH2
Staphylococcus aureus [1]
  MIC: 12 µM
[2]
  HC50 at 1 h: > 320 µM
Erythrocyte
  HC10: > 320 µM
[3]
  hemolysis at 1 h, 320 µM: 7.16%
[4]
  IC50 at 48 h: > 320 µM
[5]
  selectivity ratio: 26.7

## H-LRPLARRPIRRIRRAW-NH2
Staphylococcus aureus [1]
  MIC: > 48 µM
[2]
  HC50 at 1 h: > 320 µM
Erythrocyte
  HC10: > 320 µM
[3]
  hemolysis at 1 h, 320 µM: 8.74%
[4]
  IC50 at 48 h: > 320 µM
[5]
  selectivity ratio: 6.67
